What all share (assay): Cell proliferation assay (CellTiter-Glo, 72 hours)
For experiment [1], the target named is T1, BaF3 EML4-ALK (Homo sapiens, UniProt Q9UM73).
T1 construct: The EML4-ALK gene (variant 1) was synthesized at GenScript and cloned into pCDH-CMV-MCS-EF1-Puro plasmid (System Biosciences, Inc); fused on or other part: Q9HC35 (Echinoderm microtubule-associated protein-like 4)
The experiment is classed as cell-based. The note with it: anti-cell proliferation. The method, then: The EML4-ALK gene (variant 1) was synthesized at GenScript and cloned into pCDH-CMV-MCS-EF1-Puro plasmid (System Biosciences, Inc). Ba/F3-EML4-ALK wild type were generated by transducing Ba/F3 cells with lentivirus containing EML4-ALK wide type. Stable cell lines were selected by puromycin treatment, followed by IL-3 withdrawal. Briefly, 5×10^6 Ba/F3 cells were transduced with lentivirus supernatant in the presence of 8 μg/mL protamine sulfate. The transduced cells were subsequently selected with 1 μg/mL puromycin in the presence of IL3-containing medium RPMI1640, plus 10% FBS. After 10-12 days of selection, the surviving cells were further selected for IL3 independent growth.
(§1) Two thousand cells per well were seeded in 384 well white plate for 24 hrs, and then treated with compounds for 72 hours (37° C., 5% CO2). Cell proliferation was measured using CellTiter-Glo luciferase-based ATP detection assay (Promega) following the manufactures's protocol. IC50 determinations were performed using GraphPad Prism software (GraphPad, Inc., San Diego, Calif.).

Experiment [2] has as its system KG-1. In kind it is cell-based, human. The following applies: Homo sapiens, KG-1, anti-cell proliferation. The method, then: (§2) Human medulla thyroid carcinoma cell line TT (containing RET […] mutation) and acute myelogenous cell line KG-1 were purchased from ATCC. Human colon cancer cell line KMI2 (containing TPM3-TRKA) was obtained from NCI.
as §1

Experiment [3] has as its system KM12 cell (TPM3-TRKA). The experiment is classed as cell-based, human. The following applies: Homo sapiens, KM12, anti-cell proliferation. On the procedure: as §2, §1
Experiment [4] concerns the target T2, BaF3 KIF5B-RET (Homo sapiens, UniProt P07949).
T2 construct: fused on or other part: P33176 (Kinesin-1 heavy chain)
In kind it is cell-based. The following applies: anti-cell proliferation, read-out: BaF3 KIF5B-RET IC50.
Description: (§3) The KIF5B-RET gene was synthesized at GenScript and cloned into pCDH-CMV-MCS-EF1-Puro plasmid (System Biosciences, Inc). KIF5B-RET point mutation V804M was generated at GenScript by PCR and confirmed by sequencing. Ba/F3-KIF5B-RET wild type and mutant were generated by transducing Ba/F3 cells with lentivirus containing KIF5B-RET wide type or mutant. Stable cell lines were selected by puromycin treatment, followed by IL-3 withdrawal. Briefly, 5×10^6 Ba/F3 cells were transduced with lentivirus supernatant in the presence of 8 μg/mL protamine sulfate. The transduced cells were subsequently selected with 1 µg/mL puromycin in the presence of IL3-containing medium RPMI1640, plus 10% FBS. After 10-12 days of selection, the surviving cells were further selected for IL3 independent growth.
as §1

In experiment [5] the target is T3, BaF3 KIF5B-RET_G810R (Homo sapiens, UniProt P07949, G810R, cells depend on it).
T3 construct: fused on or other part: P33176 (Kinesin-1 heavy chain)
In kind it is cell-based. The note with it: anti-cell proliferation, read-out: BaF3 KIF5B-RET_G810R IC50.
Description: [The source words this procedure for another variant and reports this variant under the same test.] as §3, §1

For experiment [6], the target named is T4, BaF3 KIF5B-RET_V804M (Homo sapiens, UniProt P07949, V804M, cells depend on it).
T4 construct: fused on or other part: P33176 (Kinesin-1 heavy chain)
The experiment is classed as cell-based. The note with it: anti-cell proliferation, read-out: BaF3 KIF5B-RET_V804M IC50.
Description: as §3, §1

Molecules are shown by their SMILES.

T4 sequence (P07949 whole entry V804M, the tested form may be a part): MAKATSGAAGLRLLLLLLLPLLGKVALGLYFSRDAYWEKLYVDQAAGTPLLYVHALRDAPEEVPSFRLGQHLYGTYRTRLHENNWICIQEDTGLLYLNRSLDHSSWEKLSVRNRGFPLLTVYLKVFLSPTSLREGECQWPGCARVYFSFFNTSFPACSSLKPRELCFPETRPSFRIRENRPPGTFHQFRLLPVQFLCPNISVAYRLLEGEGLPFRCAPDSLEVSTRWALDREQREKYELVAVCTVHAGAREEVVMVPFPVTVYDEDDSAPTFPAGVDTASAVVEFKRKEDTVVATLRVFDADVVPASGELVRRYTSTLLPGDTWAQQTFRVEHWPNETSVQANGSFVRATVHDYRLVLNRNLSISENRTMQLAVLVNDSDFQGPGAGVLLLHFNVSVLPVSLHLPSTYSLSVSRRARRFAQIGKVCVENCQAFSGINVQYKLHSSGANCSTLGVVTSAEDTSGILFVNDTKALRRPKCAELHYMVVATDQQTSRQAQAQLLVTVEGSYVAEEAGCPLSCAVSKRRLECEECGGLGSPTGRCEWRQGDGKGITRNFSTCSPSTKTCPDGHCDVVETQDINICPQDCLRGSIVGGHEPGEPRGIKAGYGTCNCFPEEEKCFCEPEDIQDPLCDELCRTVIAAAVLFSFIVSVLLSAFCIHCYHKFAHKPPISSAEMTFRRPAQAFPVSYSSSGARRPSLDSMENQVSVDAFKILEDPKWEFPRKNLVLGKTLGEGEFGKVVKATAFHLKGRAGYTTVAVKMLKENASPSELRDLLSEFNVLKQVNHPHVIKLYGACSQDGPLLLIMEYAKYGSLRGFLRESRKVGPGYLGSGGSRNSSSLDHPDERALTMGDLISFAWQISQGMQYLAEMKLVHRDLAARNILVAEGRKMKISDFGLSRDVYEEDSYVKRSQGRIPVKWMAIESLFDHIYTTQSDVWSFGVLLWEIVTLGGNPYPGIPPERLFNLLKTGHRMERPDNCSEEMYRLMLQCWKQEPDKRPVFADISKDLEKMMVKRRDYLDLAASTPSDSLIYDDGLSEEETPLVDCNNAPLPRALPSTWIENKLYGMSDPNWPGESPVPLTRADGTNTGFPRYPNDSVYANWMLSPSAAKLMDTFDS
T3 sequence (P07949 whole entry G810R, the tested form may be a part): as the sequence (P07949 whole entry V804M, the tested form may be a part) above, with M804V, G810R counted along it
T1 sequence (Q9UM73 whole entry, change not shown, the tested form may be a part): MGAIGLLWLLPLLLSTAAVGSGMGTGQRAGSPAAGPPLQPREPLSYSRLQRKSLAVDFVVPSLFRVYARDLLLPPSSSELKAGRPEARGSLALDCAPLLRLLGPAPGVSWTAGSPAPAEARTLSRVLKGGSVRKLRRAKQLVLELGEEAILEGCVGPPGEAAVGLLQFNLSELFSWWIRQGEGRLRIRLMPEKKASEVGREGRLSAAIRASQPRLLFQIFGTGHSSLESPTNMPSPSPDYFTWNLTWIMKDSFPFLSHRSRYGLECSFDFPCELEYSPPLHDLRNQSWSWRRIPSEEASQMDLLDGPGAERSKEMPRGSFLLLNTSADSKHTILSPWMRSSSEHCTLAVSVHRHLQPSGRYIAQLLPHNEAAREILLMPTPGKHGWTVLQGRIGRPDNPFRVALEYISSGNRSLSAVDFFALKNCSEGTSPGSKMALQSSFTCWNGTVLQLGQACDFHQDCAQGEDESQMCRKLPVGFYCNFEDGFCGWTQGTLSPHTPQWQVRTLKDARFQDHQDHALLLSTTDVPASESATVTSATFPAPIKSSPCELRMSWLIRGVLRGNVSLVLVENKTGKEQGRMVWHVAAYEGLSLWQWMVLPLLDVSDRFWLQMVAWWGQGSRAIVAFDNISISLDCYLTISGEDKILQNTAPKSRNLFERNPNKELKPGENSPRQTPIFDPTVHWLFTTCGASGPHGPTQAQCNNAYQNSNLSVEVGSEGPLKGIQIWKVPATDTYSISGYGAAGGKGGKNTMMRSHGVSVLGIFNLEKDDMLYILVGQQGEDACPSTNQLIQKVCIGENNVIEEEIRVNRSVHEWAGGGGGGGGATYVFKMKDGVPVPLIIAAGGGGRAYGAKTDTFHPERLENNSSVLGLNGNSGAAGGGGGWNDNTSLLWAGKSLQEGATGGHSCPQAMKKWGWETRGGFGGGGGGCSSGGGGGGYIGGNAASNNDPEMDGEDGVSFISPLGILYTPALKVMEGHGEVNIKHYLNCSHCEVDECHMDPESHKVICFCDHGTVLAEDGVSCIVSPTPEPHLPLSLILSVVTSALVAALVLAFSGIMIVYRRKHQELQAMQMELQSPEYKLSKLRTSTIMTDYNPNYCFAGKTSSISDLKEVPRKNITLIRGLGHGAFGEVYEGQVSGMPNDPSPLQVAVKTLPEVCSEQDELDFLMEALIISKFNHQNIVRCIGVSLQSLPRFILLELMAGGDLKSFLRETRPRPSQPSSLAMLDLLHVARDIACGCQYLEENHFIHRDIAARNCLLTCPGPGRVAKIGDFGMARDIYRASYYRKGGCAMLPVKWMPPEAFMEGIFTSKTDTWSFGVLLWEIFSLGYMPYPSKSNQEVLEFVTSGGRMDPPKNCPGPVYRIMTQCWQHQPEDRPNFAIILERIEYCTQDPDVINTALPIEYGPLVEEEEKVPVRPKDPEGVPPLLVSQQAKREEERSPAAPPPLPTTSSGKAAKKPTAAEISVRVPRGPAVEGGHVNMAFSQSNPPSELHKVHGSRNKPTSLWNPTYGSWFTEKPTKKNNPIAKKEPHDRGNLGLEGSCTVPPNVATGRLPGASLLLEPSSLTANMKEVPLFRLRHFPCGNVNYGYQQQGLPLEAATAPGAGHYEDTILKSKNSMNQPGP
T2 sequence (P07949 whole entry, change not shown, the tested form may be a part): as the sequence (P07949 whole entry V804M, the tested form may be a part) above, with M804V counted along it

In the case of `O=C1NCC2(CCC2)COc2ncc(F)cc2CN2c3nc4c1cnn4cc3O[C@H]1CCC[C@H]12` [Compound 23, (3a′R,21a′S)-7′-fluoro-1′H,2′H,3′H,3a′H, 5′H,11′H,13′H,14′H,15′H,21a′H-spiro[cyclobutane-1,12′-[10,21]dioxa[4,9,14,17,18,19][hexaaza [18,20](metheno)cyclopenta[5,6][1,4]oxazino[4,3-e]pyrazolo[3,4-h]pyrido [2,3-b][1,5,7,11]oxatriazacyclotetradecin]-15′-one], the GI50 came to 1680 nM in experiment [1], 98.9 nM in experiment [4], 422 nM in experiment [5] and 3000 nM in experiment [6]. Besides, the IC50 in experiment [2] stood at 228 nM; in experiment [3], 52.9 nM.

On to `O=C1N[C@@H]2CCC[C@@H]2Oc2ncc(F)cc2CN2c3nc4c1cnn4cc3O[C@H]1CCC[C@H]12` [Compound 24, (3aS,11aR,14aS,21aR)-18-fluoro-2,3,3a,11,11a,12,13,14,14a,21a-decahydro-1H,10H,20H-7,5-(metheno)cyclopenta[b]cyclopenta[5,6][1,4] oxazino[3,4-i]pyrazolo[4,3-f]pyrido[3,2-l][1,4,8,10]oxatriazacyclotridecin-10-one], for which the GI50 in experiment [1] is 469 nM; in experiment [4], 1.8 nM; in experiment [5], 73.6 nM; in experiment [6], 1220 nM. Further, the 50% inhibitory concentration (IC50) in experiment [2] came to 8.7 nM; in experiment [3] it was 2.8 nM.

For `O=C1NC2(COc3ncc(F)cc3CN3c4nc5c1cnn5cc4O[C@H]1CCC[C@H]13)CC(F)(F)C2` [Compound 25, (3a′R,20a′S)-3,3,7′-trifluoro-1′H,2′H, 3′H,3a′H,5′H,11′H,13′H,14′H,20a′H-spiro[cyclobutane-1,12′-[10,20]dioxa[4,9,13,16,17,18][hexaaza [17,19](metheno)cyclopenta[5,6][1,4]oxazino[3,4-i]pyrazolo[4,3-f]pyrido [3,2-l][1,4,8,10]oxatriazacyclotridecin]-14′-one], the GI50 is 3000 nM in experiment [1], 193 nM in experiment [4], 559 nM in experiment [5] and 3000 nM in experiment [6]. In addition, the IC50 in experiment [2] was found to be 677 nM; in experiment [3], 277 nM.

Consider `O=C1NC2(CCCC2)COc2ncc(F)cc2CN2c3nc4c1cnn4cc3O[C@H]1CCC[C@H]12` [Compound 26, (3a′R,20a′S)-7′-fluoro-1′H,2′H, 3′H,3a′H,5′H,11′H,13′H,14′H,20a′H-spiro[cyclopentane-1,12′-[10,20]dioxa[4,9,13,16,17,18][hexaaza [17,19](metheno)cyclopenta[5,6][1,4]oxazino[3,4-i]pyrazolo[4,3-f]pyrido [3,2-l][1,4,8,10]oxatriazacyclotridecin]-14′-one], for which the GI50 was 1410 nM in experiment [1], 160 nM in experiment [4], 323 nM in experiment [5] and 5000 nM in experiment [6]. Further, the IC50 in experiment [2] turned out to be 737 nM; in experiment [3], 210 nM.

In the case of `CC1(C)CNC(=O)c2cnn3cc4c(nc23)N(Cc2cc(F)cnc2OC1)[C@@H]1CCC[C@@H]1O4` [Compound 27, (3aR,21aS)-7-fluoro-12,12-dimethyl-2,3,3a,11,12,13,14,21a-octahydro-1H,5H,15H-18,20-(metheno)cyclopenta[5,6][1,4]oxazino[4,3-e]pyrazolo[3,4-h]pyrido[2,3-b][1,5,7,11]oxatriazacyclotetradecin-15-one], the GI50 is 1000 nM in experiment [1], under 0.2 nM in experiment [4], 63 nM in experiment [5] and 2000 nM in experiment [6]. The IC50 in experiment [2] and in experiment [3] was 0.3 nM each time.

Consider `C[C@H]1CCOc2ncc(F)cc2CN2c3nc4c(cnn4cc3O[C@H]3CCC[C@H]32)C(=O)N1` [Compound 28, (3aR,13S,21aS)-7-fluoro-13-methyl-2,3,3a,11,12,13,14,21a-octahydro-1H,5H,15H-18,20-(metheno)cyclopenta[5,6][1,4]oxazino[4,3-e]pyrazolo[3,4-h]pyrido[2,3-b][1,5,7,11]oxatriazacyclotetradecin-15-one], for which the GI50 in experiment [1] was 803 nM; in experiment [4] it was 1.5 nM; in experiment [5], 72 nM; in experiment [6], 2000 nM. The results for the half-maximal inhibitory concentration (IC50) in experiment [2] and in experiment [3] were 22.8 nM and 11.8 nM, respectively.

Turning to `CC1CNC(=O)c2cnn3cc4c(nc23)N(Cc2cc(F)cnc2OC1)[C@@H]1CCC[C@@H]1O4` (stereo partly drawn) [Compound 29, (3aR,21aS)-7-fluoro-12-methyl-2,3,3a,11,12,13,14,21a-octahydro-1H,5H,15H-18,20-(metheno)cyclopenta[5,6][1,4]oxazino[4,3-e]pyrazolo[3,4-h]pyrido[2,3-b][1,5,7,11]oxatriazacyclotetradecin-15-one], the GI50 is 901 nM in experiment [1], 0.3 nM in experiment [4], 134 nM in experiment [5] and 1380 nM in experiment [6]. In addition, the IC50 in experiment [2] is 7.9 nM; in experiment [3], 1.7 nM.

As for `C[C@H]1CNC(=O)c2cnn3cc4c(nc23)N(Cc2cc(F)cnc2O1)[C@@H]1COC[C@@H]1O4` [Compound 30, (3aR,11S,20aR)-7-fluoro-11-methyl-1,3,3a,12,13,20a-hexahydro-5H-17,19-(metheno)furo[3′,4′:5,6][1,4]oxazino[3,4-i]pyrazolo[4,3-f]pyrido[3,2-l][1,4,8,10]oxatriazacyclotridecin-14(11H)-one], the GI50 in experiment [1] is 2000 nM; in experiment [4], 162 nM; in experiment [5], 1860 nM; in experiment [6], 337 nM. Besides, the results for the IC50 in experiment [2] and in experiment [3] were 853 nM and 13.5 nM, respectively.

On to `O=C1NC[C@H](O)COc2ncc(F)cc2CN2c3nc4c1cnn4cc3O[C@H]1CCC[C@H]12` [Compound 32, (3aR,12S,21aS)-7-fluoro-12-hydroxy-2,3,3a,11,12,13,14,21a-octahydro-1H,5H,15H-18,20-(metheno)cyclopenta[5,6][1,4]oxazino[4,3-e]pyrazolo[3,4-h]pyrido[2,3-b][1,5,7,11]oxatriazacyclotetradecin-15-one], for which the GI50 in experiment [1] is 1060 nM; in experiment [4], 89 nM; in experiment [5] it was 501 nM; in experiment [6] it was 5720 nM. Further, the IC50 in experiment [2] was 223 nM; in experiment [3], 20.2 nM.

Consider `O=C1NCC(O)(O)COc2ncc(F)cc2CN2c3nc4c1cnn4cc3O[C@H]1CCC[C@H]12` [Compound 33, (3aR,21aS)-7-fluoro-12,12-dihydroxy-2,3,3a,11,12,13,14,21a-octahydro-1H,5H,15H-18,20-(metheno)cyclopenta[5,6][1,4]oxazino[4,3-e]pyrazolo[3,4-h]pyrido[2,3-b][1,5,7,11]oxatriazacyclotetradecin-15-one], for which the GI50 in experiment [1] is 2000 nM; in experiment [4], 198 nM; in experiment [5] it was 1200 nM; in experiment [6], 4000 nM. Moreover, the IC50 in experiment [2] was 356 nM; in experiment [3], 124 nM.

`O=C1NC[C@H](F)COc2ncc(F)cc2CN2c3nc4c1cnn4cc3O[C@H]1CCC[C@H]12` [Compound 38, (3aR,12S,21aS)-7,12-difluoro-2,3,3a,11,12,13,21a-octahydro-1H,5H, 15H-18,20-(metheno)cyclopenta[5,6][1,4] oxazino[4,3-e]pyrazolo[3,4-h]pyrido[2,3-b][1,5,7,11]oxatriazacyclotetradecin-15-one]: the GI50 was 82.1 nM in experiment [1], under 0.2 nM in experiment [4], 0.3 nM in experiment [5] and 349 nM in experiment [6]. The IC50 in experiment [2] and in experiment [3] was under 0.2 nM throughout.

As to `O=C1NC[C@@H](F)COc2ncc(F)cc2CN2c3nc4c1cnn4cc3O[C@H]1CCC[C@H]12` [Compound 39, 3aR,12R,21aS)-7,12-difluoro-2,3,3a,11,12,13,21a-octahydro-1H,5H, 15H-18,20-(metheno)cyclopenta[5,6][1,4] oxazino[4,3-e]pyrazolo[3,4-h]pyrido[2,3-b][1,5,7,11]oxatriazacyclotetradecin-15-one], the GI50 was found to be 152 nM in experiment [1], 10.2 nM in experiment [4], 57.3 nM in experiment [5] and 3000 nM in experiment [6]. The IC50 was 59.2 nM in experiment [2] and 7.4 nM in experiment [3].

Usually IC50 stands for the point on the concentration scale where inhibition reaches its midpoint.
